From PubChem BioAssay (NCI)
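Grown in 96-well plates, cells were treated for 48 hours with each compound at five concentrations. Insufficient inhibition: endpoint recorded as highest concentration tested. The concentration for 50% growth inhibition is given as GI50. TGI marks complete inhibition of growth.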

How the values were obtained:
Experiment in all cases: inhibition of tumour cell growth, NCI panel, 48 h
[1] = system: OVCAR-8 ovarian
[2] = system: SF-295 CNS
[3] = system: HCT-15 colon
[4] = system: NCI-H460 lung
[5] = system: SNB-75 CNS
[6] = system: COLO 205 colon
[7] = system: PC-3 prostate
[8] = system: RPMI-8226 leukemia
[9] = system: A549 NSCLC
[10] = system: MCF7 breast
[11] = system: NCI-H23 lung
[12] = system: CCRF-CEM leukemia
[13] = system: T-47D breast
[14] = system: HCT-116 colon
[15] = system: OVCAR-5 ovarian
[16] = system: SF-268 CNS
[17] = system: SK-MEL-5 melanoma
[18] = system: OVCAR-4 ovarian
[19] = system: RXF 393 renal
[20] = system: ACHN renal
[21] = system: SK-MEL-2 melanoma
[22] = system: CAKI-1 renal
[23] = system: NCI-H226 lung
[24] = system: HT29 colon
[25] = system: MDA-MB-435
[26] = system: HS 578T breast
[27] = system: HCC-2998 colon
[28] = system: TK-10 renal
[29] = system: SK-OV-3 ovarian
[30] = system: A498 renal
[31] = system: SK-MEL-28 melanoma
[32] = system: MALME-3M melanoma
[33] = system: UACC-62 melanoma
[34] = system: SF-539 CNS
[35] = system: SN12C renal
[36] = system: LOX IMVI melanoma
[37] = system: MDA-MB-231 breast
[38] = system: IGROV1 ovarian
[39] = system: SNB-19 CNS
[40] = system: NCI-H522 lung
[41] = system: HOP-92 NSCLC
[42] = system: 786-0 renal
[43] = system: BT-549 breast
[44] = system: MOLT-4 leukemia
[45] = system: OVCAR-3 ovarian
[46] = system: SR leukemia
[47] = system: KM12 colon
[48] = system: UO-31 renal
[49] = system: NCI/ADR-RES ovarian
[50] = system: SW-620 colon
[51] = system: EKVX NSCLC
[52] = system: M14 melanoma
[53] = system: DU-145 prostate
[54] = system: UACC-257 melanoma
[55] = system: U251 CNS

O=c1[nH]c2cc(Cl)c(Cl)cc2n2cc3ccccc3c12 gave a GI50 [1] of 18.4 µM, a TGI [1] of 32.4 µM and a GI50 [2] of 16.2 µM. The TGI [2] was 29.9 µM, the GI50 [3] was 16.6 µM and the TGI [3] was 30.2 µM. It also gave a GI50 [4] of 18.8 µM, a TGI [4] of 32.8 µM and a GI50 [5] of 21.6 µM. It also gave a TGI [5] of 53.3 µM, a GI50 [6] of 29.6 µM and a TGI [6] of over 100 µM. It also gave a GI50 [7] of 17.3 µM, a TGI [7] of 31.1 µM and a GI50 [8] of 22.3 µM. The TGI [8] was 49.2 µM, the GI50 [9] was 18.9 µM and the TGI [9] was 34.5 µM. For the same compound, the GI50 [10] was 21.4 µM, the TGI [10] was 39.5 µM and the GI50 [11] was 17.2 µM. It also gave a TGI [11] of 30.9 µM, a GI50 [12] of 22.1 µM and a TGI [12] of 48.9 µM. For the same compound, the GI50 [13] was 30.8 µM, the TGI [13] was 75.5 µM and the GI50 [14] was 21 µM. For the same compound, the TGI [14] was 35.3 µM, the GI50 [15] was 17.1 µM and the TGI [15] was 30.8 µM. It also gave a GI50 [16] of 23.7 µM, a TGI [16] of 42.6 µM and a GI50 [17] of 19.9 µM. For the same compound, the TGI [17] was 41.7 µM, the GI50 [18] was 20.3 µM and the TGI [18] was 49.8 µM. It also gave a GI50 [19] of 17.4 µM, a TGI [19] of 31.2 µM and a GI50 [20] of 15.5 µM. The TGI [20] was 28.9 µM, the GI50 [21] was 24.9 µM and the TGI [21] was 54 µM. For the same compound, the GI50 [22] was 20.6 µM, the TGI [22] was 34.9 µM and the GI50 [23] was 18.6 µM. The TGI [23] was 35.9 µM, the GI50 [24] was 29 µM and the TGI [24] was over 100 µM. It also gave a GI50 [25] of 16.9 µM, a TGI [25] of 30.5 µM and a GI50 [26] of 20.1 µM. It also gave a TGI [26] of 53 µM, a GI50 [27] of 0.813 µM and a TGI [27] of 18.6 µM. The GI50 [28] was 16.8 µM, the TGI [28] was 30.4 µM and the GI50 [29] was 18 µM. For the same compound, the TGI [29] was 33.1 µM, the GI50 [30] was 15.8 µM and the TGI [30] was 29.9 µM. The GI50 [31] was 33 µM, the TGI [31] was over 100 µM and the GI50 [32] was 17.1 µM. The TGI [32] was 32.7 µM, the GI50 [33] was 16.5 µM and the TGI [33] was 30.1 µM. It also gave a GI50 [34] of 19.1 µM, a TGI [34] of 39.5 µM and a GI50 [35] of 15.7 µM. It also gave a TGI [35] of 29.4 µM, a GI50 [36] of 17.3 µM and a TGI [36] of 31 µM. The GI50 [37] was 17.2 µM, the TGI [37] was 32.7 µM and the GI50 [38] was 17.4 µM. The TGI [38] was 31.2 µM, the GI50 [39] was 21.6 µM and the TGI [39] was 56.6 µM. For the same compound, the GI50 [40] was 10.2 µM, the TGI [40] was 31 µM and the GI50 [41] was 18.4 µM. It also gave a TGI [41] of 34.7 µM, a GI50 [42] of 24.9 µM and a TGI [42] of 39.6 µM. For the same compound, the GI50 [43] was 26.5 µM, the TGI [43] was 57.2 µM and the GI50 [44] was 18.7 µM. For the same compound, the TGI [44] was 36.7 µM, the GI50 [45] was 18.4 µM and the TGI [45] was 32.4 µM. The GI50 [46] was 17.3 µM, the TGI [46] was 39 µM and the GI50 [47] was 17.3 µM. The TGI [47] was 31.1 µM, the GI50 [48] was 17.9 µM and the TGI [48] was 32.8 µM. The GI50 [49] was 17.7 µM, the TGI [49] was 31.6 µM and the GI50 [50] was 15.8 µM. The TGI [50] was 29.2 µM, the GI50 [51] was 21.9 µM and the TGI [51] was 43.5 µM. The GI50 [52] was 23 µM, the TGI [52] was 39.7 µM and the GI50 [53] was 18 µM. It also gave a TGI [53] of 31.8 µM, a GI50 [54] of 20.3 µM and a TGI [54] of 48.6 µM. For the same compound, the GI50 [55] was 16.4 µM and the TGI [55] was 30 µM.
